Measured values taken from US4255444A, “4-Hydroxy-2-pyrone derivatives having antihyperlipaemic activity” (Sankyo Company Limited, priority 1978, dated 1981).

Biological target: cholesterol biosynthesis (crude enzyme extracted from rat liver)
Assay: Inhibition of cholesterol biosynthesis by crude enzyme extracted from rat liver (radioactive acetic acid incorporation, digitonin precipitation)
Assay type: biochemical
Conditions: 37° C., 60 minutes, compound added at beginning of reaction
Procedure: Crude enzyme extracted from rat liver was reacted with radioactive acetic acid at 37° C. for 60 minutes. The radioactive cholesterol thus biosynthesized was saponified and precipitated with digitonin, and the radioactivity was measured to determine the amount of cholesterol produced. The reaction was repeated, but adding one of the compounds of the invention listed in the following Table at the beginning of the reaction, and the amount of cholesterol biosynthesized was again determined, to give a quantitative measurement of the inhibitory effect of the compounds of the invention. The concentrations (μg/ml) of the compounds of the invention and of a known compound (clofibrate) which gave approximately 50% inhibition of cholesterol biosynthesis are reported in the following Table as I50 values [see Bricker et al, The Journal of Biological Chemistry, 247, 4914 (1972)]. The compounds of the invention are identified in the following Table by the numbers heretofore assigned to them.

Row | Compound | I50 (concentration giving approximately 50% inhibition of cholesterol biosynthesis)
1 | CCOC(=O)C(C)(C)Oc1ccc(Cl)cc1 [Clofibrate, reference compound] | 250 to 300 µg/mL
2 | Cc1ccc2ccccc2c1CCC1CC(O)CC(=O)O1 (centres unmarked) [Compound No. 1, 4-Hydroxy-6-[2-(2-methyl-1-naphthyl)ethyl]-3,4,5,6-tetrahydro-2H-pyran-2-one] | 0.75 µg/mL
3 | O=C1CC(O)CC(CCc2cccc3ccccc23)O1 (centres unmarked) [Compound No. 3, 4-Hydroxy-6-[2-(1-naphthyl)ethyl]-3,4,5,6-tetrahydro-2H-pyran-2-one] | 6.4 µg/mL
4 | CC(C)(Oc1ccc(Cl)cc1)C1CC(O)CC(=O)O1 (centres unmarked) [Compound No. 4, 6-[1-(4-Chlorophenoxy)-1-methylethyl]-4-hydroxy-3,4,5,6-tetrahydro-2H-pyran-2-one] | 21.3 µg/mL
5 | CC(Oc1ccccc1)C1CC(O)CC(=O)O1 (centres unmarked) [Compound No. 2, 4-Hydroxy-6-(1-phenoxyethyl)-3,4,5,6-tetrahydro-2H-pyran-2-one] | 42.3 µg/mL
